# Assays:
# Assay in all cases: radiometric filter-binding kinase assay
# EPHB2 (human) = EPHB2 (human) (UniProt P29323); conditions: compound 1.0 µM
# RPS6KA1 KD1 KD2 (human) = RPS6KA1 KD1 KD2 (human) (UniProt Q15418)
# PAK7 (human) = PAK7 (human) (UniProt Q9P286)
# MAPK1 (human) = MAPK1 (human) (UniProt P28482)
# MAPK13 (human) = MAPK13 (human) (UniProt O15264)
# HIPK2 (human) = HIPK2 (human) (UniProt Q9H2X6)
# [1] = system: SGK1 (human), O00141 [S422D]
# PRKACA (human) = PRKACA (human) (UniProt P17612)
# SYK (human) = SYK (human) (UniProt P43405)
# DYRK2 (human) = DYRK2 (human) (UniProt Q92630)
# CHEK2 (human) = CHEK2 (human) (UniProt O96017)
# NUAK1 (human) = NUAK1 (human) (UniProt O60285)
# MAP3K11 (human) = MAP3K11 (human) (UniProt Q16584)
# BRSK2 (human) = BRSK2 (human) (UniProt Q8IWQ3)
# EPHB3 (human) = EPHB3 (human) (UniProt P54753)
# IKBKE (human) = IKBKE (human) (UniProt Q14164)
# NEK2 (human) = NEK2 (human) (UniProt P51955)
# MARK2 (human) = MARK2 (human) (UniProt Q7KZI7)
# MKNK1 (human) = MKNK1 (human) (UniProt Q9BUB5)
# AURKA (human) = AURKA (human) (UniProt O14965); conditions: compound 1.0 µM
# DYRK1A (human) = DYRK1A (human) (UniProt Q13627)
# MAPK10 (human) = MAPK10 (human) (UniProt P53779)
# PAK4 (human) = PAK4 (human) (UniProt O96013)
# MST4 (human) = MST4 (human) (UniProt Q9P289)
# PRKCA (human) = PRKCA (human) (UniProt P17252)
# ERBB4 (human) = ERBB4 (human) (UniProt Q15303)
# MAPK3 (human) = MAPK3 (human) (UniProt P27361)
# MAPKAPK3 (human) = MAPKAPK3 (human) (UniProt Q16644)
# PRKAA1 or PRKAA2 (rat) = conditions: accession and sequence are those of the human protein
# MAPK12 (human) = MAPK12 (human) (UniProt P53778)
# CaMK1 (human) = CaMK1 (human) (UniProt Q14012)
# MAPK8 (human) = MAPK8 (human) (UniProt P45983)
# [2] = system: AKT1 (human), P31749 [S473D]
# MAP2K6 (human) = MAP2K6 (human) (UniProt P52564)
# PLK1 (human) = PLK1 (human) (UniProt P53350)
# Sequence of PLK1 (human) (P53350 whole entry, looked up): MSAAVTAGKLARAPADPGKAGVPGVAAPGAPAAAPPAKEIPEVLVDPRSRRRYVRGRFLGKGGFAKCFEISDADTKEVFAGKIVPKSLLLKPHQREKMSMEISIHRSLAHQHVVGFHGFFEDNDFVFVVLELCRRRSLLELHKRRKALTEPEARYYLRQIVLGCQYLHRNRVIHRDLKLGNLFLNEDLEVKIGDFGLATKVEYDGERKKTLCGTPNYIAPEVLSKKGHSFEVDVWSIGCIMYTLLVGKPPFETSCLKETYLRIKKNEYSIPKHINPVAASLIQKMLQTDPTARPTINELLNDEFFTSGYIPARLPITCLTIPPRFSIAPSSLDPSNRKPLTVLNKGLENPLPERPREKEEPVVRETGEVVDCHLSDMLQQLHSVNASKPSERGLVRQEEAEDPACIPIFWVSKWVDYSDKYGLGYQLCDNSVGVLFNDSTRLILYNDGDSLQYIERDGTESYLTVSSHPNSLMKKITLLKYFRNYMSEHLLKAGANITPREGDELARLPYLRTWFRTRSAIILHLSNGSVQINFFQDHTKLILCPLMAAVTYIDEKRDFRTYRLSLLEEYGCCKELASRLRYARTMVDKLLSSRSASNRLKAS
# Sequence of CHEK2 (human) (O96017 whole entry, looked up): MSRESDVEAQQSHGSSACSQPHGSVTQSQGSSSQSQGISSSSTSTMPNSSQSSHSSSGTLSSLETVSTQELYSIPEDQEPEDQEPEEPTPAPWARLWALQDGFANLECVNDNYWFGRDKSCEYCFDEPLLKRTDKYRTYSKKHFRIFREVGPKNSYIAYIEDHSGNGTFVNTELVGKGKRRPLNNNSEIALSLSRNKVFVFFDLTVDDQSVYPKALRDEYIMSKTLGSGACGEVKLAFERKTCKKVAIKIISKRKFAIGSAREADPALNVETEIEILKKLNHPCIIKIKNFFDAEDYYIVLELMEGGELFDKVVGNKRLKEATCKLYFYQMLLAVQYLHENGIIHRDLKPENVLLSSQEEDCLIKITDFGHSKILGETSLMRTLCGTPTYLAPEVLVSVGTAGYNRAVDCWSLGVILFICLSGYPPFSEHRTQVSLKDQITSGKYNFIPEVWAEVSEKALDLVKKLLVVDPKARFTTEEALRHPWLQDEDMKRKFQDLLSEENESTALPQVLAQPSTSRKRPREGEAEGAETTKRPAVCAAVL
# Sequence of HIPK2 (human) (Q9H2X6 whole entry, looked up): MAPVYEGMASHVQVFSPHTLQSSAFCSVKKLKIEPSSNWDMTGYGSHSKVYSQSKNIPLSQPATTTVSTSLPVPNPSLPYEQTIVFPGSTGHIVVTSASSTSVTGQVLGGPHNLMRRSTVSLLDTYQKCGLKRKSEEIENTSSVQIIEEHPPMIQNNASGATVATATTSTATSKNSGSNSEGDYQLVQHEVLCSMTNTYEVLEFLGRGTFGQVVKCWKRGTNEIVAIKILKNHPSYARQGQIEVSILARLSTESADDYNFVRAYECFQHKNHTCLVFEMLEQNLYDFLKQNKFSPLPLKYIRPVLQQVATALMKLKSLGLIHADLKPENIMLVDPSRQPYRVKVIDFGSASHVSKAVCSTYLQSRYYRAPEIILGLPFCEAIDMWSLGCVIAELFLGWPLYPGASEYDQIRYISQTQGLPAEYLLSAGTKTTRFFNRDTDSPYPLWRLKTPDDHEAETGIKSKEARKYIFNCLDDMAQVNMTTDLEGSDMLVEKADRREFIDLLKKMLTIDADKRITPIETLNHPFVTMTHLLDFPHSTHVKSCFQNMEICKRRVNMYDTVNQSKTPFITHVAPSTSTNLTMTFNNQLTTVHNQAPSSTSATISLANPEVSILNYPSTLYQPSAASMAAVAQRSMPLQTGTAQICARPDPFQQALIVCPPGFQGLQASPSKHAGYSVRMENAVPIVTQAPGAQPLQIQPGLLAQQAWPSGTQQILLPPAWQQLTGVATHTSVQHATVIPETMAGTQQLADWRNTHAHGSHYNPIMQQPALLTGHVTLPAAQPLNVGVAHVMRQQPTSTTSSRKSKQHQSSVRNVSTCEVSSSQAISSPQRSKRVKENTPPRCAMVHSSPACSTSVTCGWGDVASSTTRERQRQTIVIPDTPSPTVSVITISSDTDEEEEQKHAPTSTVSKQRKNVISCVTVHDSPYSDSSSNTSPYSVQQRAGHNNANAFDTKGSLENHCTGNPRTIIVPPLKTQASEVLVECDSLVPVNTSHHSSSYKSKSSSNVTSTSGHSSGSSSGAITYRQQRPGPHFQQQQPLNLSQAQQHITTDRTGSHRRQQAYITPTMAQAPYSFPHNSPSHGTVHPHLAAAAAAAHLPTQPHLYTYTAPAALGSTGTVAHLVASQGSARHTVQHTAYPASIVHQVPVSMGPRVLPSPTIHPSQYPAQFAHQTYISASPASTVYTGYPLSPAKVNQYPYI
# Sequence of MAPK3 (human) (P27361 whole entry, looked up): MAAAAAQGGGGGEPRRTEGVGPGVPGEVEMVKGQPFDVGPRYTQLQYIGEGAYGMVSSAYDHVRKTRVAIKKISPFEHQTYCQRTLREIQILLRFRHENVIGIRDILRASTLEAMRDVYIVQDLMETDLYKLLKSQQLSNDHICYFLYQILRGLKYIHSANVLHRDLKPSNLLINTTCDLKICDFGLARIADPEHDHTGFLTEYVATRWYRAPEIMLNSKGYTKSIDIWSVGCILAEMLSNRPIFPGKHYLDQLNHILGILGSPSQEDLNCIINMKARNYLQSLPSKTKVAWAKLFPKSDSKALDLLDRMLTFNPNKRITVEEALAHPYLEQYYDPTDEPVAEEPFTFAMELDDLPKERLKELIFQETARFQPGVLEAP
# Sequence of MAP3K11 (human) (Q16584 whole entry, looked up): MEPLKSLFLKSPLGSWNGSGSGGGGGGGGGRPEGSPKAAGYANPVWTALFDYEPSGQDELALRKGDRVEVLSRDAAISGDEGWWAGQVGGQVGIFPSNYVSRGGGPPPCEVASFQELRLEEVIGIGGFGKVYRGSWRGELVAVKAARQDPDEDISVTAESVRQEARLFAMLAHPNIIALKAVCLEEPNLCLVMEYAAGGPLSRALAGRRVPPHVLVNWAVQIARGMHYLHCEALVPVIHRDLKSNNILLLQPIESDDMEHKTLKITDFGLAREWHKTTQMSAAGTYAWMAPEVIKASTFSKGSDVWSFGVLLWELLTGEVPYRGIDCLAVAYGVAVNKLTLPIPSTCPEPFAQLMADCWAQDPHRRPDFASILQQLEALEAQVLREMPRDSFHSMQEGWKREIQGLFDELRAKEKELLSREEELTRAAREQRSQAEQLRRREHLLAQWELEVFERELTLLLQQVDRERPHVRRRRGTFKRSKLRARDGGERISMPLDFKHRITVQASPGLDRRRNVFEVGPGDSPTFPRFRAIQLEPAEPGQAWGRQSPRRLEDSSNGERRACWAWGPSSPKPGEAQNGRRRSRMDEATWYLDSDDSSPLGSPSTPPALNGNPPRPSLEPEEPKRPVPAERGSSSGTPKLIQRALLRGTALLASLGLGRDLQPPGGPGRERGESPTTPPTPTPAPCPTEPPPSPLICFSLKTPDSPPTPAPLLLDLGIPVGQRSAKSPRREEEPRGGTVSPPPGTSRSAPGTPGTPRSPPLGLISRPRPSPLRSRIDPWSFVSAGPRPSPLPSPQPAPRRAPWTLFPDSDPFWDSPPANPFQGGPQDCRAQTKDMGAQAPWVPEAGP
# Sequence of NEK2 (human) (P51955 whole entry, looked up): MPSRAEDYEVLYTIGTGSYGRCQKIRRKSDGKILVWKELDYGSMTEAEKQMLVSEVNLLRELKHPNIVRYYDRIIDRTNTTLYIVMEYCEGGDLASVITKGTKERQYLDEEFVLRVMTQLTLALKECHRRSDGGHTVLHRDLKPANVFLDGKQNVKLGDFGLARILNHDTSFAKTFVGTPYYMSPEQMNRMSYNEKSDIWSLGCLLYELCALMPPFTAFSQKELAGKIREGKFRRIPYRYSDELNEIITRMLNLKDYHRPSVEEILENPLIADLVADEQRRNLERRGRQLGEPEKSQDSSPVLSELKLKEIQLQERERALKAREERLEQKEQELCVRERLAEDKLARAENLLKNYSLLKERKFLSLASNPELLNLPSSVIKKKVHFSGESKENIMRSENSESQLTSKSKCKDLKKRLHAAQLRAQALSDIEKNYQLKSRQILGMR
# Sequence of PAK4 (human) (O96013 whole entry, looked up): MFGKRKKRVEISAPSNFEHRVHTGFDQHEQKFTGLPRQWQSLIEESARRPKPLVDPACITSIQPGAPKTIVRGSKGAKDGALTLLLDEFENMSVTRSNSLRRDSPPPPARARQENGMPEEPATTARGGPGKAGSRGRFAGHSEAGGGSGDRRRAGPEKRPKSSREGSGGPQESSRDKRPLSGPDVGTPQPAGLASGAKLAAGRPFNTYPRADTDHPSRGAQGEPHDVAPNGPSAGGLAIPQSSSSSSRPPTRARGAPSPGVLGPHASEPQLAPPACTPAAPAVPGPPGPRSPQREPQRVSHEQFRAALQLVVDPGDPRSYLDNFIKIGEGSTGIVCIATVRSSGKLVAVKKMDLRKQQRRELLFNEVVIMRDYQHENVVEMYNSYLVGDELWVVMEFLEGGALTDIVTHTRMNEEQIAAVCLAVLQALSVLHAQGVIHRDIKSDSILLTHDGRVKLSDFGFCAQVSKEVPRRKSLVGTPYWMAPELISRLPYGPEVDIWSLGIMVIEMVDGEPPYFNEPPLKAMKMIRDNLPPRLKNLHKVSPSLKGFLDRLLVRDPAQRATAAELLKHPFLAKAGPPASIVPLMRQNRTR
# Sequence of MAPK13 (human) (O15264 whole entry, looked up): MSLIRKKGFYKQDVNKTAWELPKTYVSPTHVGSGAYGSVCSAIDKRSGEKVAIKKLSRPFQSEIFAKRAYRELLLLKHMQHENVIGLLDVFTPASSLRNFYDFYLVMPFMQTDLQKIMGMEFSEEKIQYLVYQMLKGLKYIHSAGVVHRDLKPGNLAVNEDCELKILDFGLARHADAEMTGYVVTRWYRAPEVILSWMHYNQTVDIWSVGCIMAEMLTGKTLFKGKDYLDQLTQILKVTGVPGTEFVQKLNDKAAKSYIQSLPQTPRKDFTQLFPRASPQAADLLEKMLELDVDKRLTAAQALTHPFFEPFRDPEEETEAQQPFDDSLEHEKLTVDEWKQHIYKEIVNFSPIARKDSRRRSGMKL
structure (smiles),measurement,setting,value
COc1cc(O)c2c(c1)/C=C/C[C@H](O)[C@H](O)C(=O)/C=C\C[C@H](C)OC2=O,residual activity,EPHB2 (human),75%
same,residual activity,RPS6KA1 KD1 KD2 (human); compound 0.1 µM,113%
same,residual activity,RPS6KA1 KD1 KD2 (human); compound 1.0 µM,90%
same,residual activity,PAK7 (human); compound 0.1 µM,96%
same,residual activity,PAK7 (human); compound 1.0 µM,103%
same,residual activity,MAPK1 (human); compound 0.1 µM,103%
same,residual activity,MAPK1 (human); compound 1.0 µM,65%
same,residual activity,MAPK13 (human); compound 0.1 µM,99%
same,residual activity,MAPK13 (human); compound 1.0 µM,114%
same,residual activity,HIPK2 (human); compound 0.1 µM,98%
same,residual activity,HIPK2 (human); compound 1.0 µM,82%
same,residual activity,[1]; compound 0.1 µM,106%
same,residual activity,[1]; compound 1.0 µM,95%
same,residual activity,PRKACA (human); compound 0.1 µM,99%
same,residual activity,PRKACA (human); compound 1.0 µM,93%
same,residual activity,SYK (human); compound 0.1 µM,88%
same,residual activity,SYK (human); compound 1.0 µM,77%
same,residual activity,DYRK2 (human); compound 0.1 µM,114%
same,residual activity,DYRK2 (human); compound 1.0 µM,89%
same,residual activity,CHEK2 (human); compound 0.1 µM,110%
same,residual activity,CHEK2 (human); compound 1.0 µM,87%
same,residual activity,NUAK1 (human); compound 0.1 µM,113%
same,residual activity,NUAK1 (human); compound 1.0 µM,78%
same,residual activity,MAP3K11 (human); compound 0.1 µM,114%
same,residual activity,MAP3K11 (human); compound 1.0 µM,79%
same,residual activity,BRSK2 (human); compound 0.1 µM,84%
same,residual activity,BRSK2 (human); compound 1.0 µM,88%
same,residual activity,EPHB3 (human); compound 0.1 µM,111%
same,residual activity,EPHB3 (human); compound 1.0 µM,100%
same,residual activity,IKBKE (human); compound 0.1 µM,120%
same,residual activity,IKBKE (human); compound 1.0 µM,92%
same,residual activity,NEK2 (human); compound 0.1 µM,108%
same,residual activity,NEK2 (human); compound 1.0 µM,89%
same,residual activity,MARK2 (human); compound 0.1 µM,109%
same,residual activity,MARK2 (human); compound 1.0 µM,114%
same,residual activity,MKNK1 (human); compound 0.1 µM,55%
same,residual activity,MKNK1 (human); compound 1.0 µM,13%
same,residual activity,AURKA (human),105%
same,residual activity,DYRK1A (human); compound 0.1 µM,117%
same,residual activity,DYRK1A (human); compound 1.0 µM,97%
same,residual activity,MAPK10 (human); compound 0.1 µM,107%
same,residual activity,MAPK10 (human); compound 1.0 µM,90%
same,residual activity,PAK4 (human); compound 0.1 µM,94%
same,residual activity,PAK4 (human); compound 1.0 µM,81%
same,residual activity,MST4 (human); compound 0.1 µM,129%
same,residual activity,MST4 (human); compound 1.0 µM,72%
same,residual activity,PRKCA (human); compound 0.1 µM,107%
same,residual activity,PRKCA (human); compound 1.0 µM,85%
same,residual activity,ERBB4 (human); compound 0.1 µM,100%
same,residual activity,ERBB4 (human); compound 1.0 µM,95%
same,residual activity,MAPK3 (human); compound 0.1 µM,106%
same,residual activity,MAPK3 (human); compound 1.0 µM,64%
same,residual activity,MAPKAPK3 (human); compound 0.1 µM,113%
same,residual activity,MAPKAPK3 (human); compound 1.0 µM,94%
same,residual activity,PRKAA1 or PRKAA2 (rat); compound 0.1 µM,100%
same,residual activity,PRKAA1 or PRKAA2 (rat); compound 1.0 µM,92%
same,residual activity,MAPK12 (human); compound 0.1 µM,99%
same,residual activity,MAPK12 (human); compound 1.0 µM,92%
same,residual activity,CaMK1 (human); compound 0.1 µM,88%
same,residual activity,CaMK1 (human); compound 1.0 µM,105%
same,residual activity,MAPK8 (human); compound 0.1 µM,90%
same,residual activity,MAPK8 (human); compound 1.0 µM,52%
same,residual activity,[2]; compound 0.1 µM,111%
same,residual activity,[2]; compound 1.0 µM,91%
same,residual activity,MAP2K6 (human); compound 0.1 µM,12%
same,residual activity,MAP2K6 (human); compound 1.0 µM,10%
same,residual activity,PLK1 (human); compound 0.1 µM,103%
same,residual activity,PLK1 (human); compound 1.0 µM,100%
